According to patent US5628328A, “Method for measuring muscle mass” (priority 1995, dated 1997):

Legend:
[1] = in vivo
Procedure: The diversity of models between cattle, dogs and humans and sheep and pigs reflects differences in known physiology. In each species the tracer is injected into compartment 1 which, based on size (volume and mass), is similar to plasma and extracellular water space. Compartment 1 was the sampling compartment and the compartment from which the steady state calculations were initiated. All models for each species can be resolved by sampling only plasma, except in sheep--the model in FIG. 4 required the sampling of plasma and urine. However, the sheep model can be resolved from plasma kinetics of 3-methylhistidine if the rate of exit from compartment 1 is fixed. From the steady state calculations the de novo production of 3-methylhistidine was obtained into compartment 3 for humans, cattle and dogs and into compartment 2 for sheep and pigs. The de novo production of 3-methylhistidine could be placed as an entry into compartment 2 and an identical rate calculated. The compartment identity of compartment 2 and 3 is intracellular pools of 3-methylhistidine. The metabolic form of 3-methylhistidine in these compartments may not be identical nor is the identity of compartment 2 or 3 for one species the same identity for another species (i.e., cattle vs. sheep). The models also depict differences in the route by which 3-methylhistidine exits the system. […]

[2] = design: species or system human; settings: in vivo
Excerpt: Normal volunteers with no evidence or history of diabetes mellitus or of cardiac, liver, renal or pulmonary diseases were studied. The subjects consisted of 3 males and 1 female, ranging in age from 31 to 37 years, in body weight from 47 to 92 kg, and in body mass index (BMI) from 19.2 to 25.5. The purpose and possible risks of the study were explained to all subjects, and their voluntary written consent was obtained. The study protocol was approved by the Committee for the Protection of Human Subjects of the Institutional Review Board at Vanderbilt University School of Medicine. All studies were performed at the Clinical Research Center (CRC). Subjects were placed on balanced weight-maintenance diets for at least one week before the start of the study. Meat was excluded from the subjects' diets for three days before the study and during the study.
All studies were performed after a 10-12 hour overnight fast. On the morning of the experiment (6.30 to 7.00 hours), an 18-gauge Angiocatheter™ (Benton Dickinson, Sandy, Utah) was placed in a superficial hand vein of the nondominant arm for blood sampling. The hand was heated to 55° C. to ensure complete arterialization (Abumrad, N.N. et al., "Use of a heated superficial hand vein as an alternative site for the measurement of amino acid concentrations and for the study of glucose and alanine kinetics in man," Metabolism (1981) 30:936-940). In addition, a 16-gauge angiocatheter was inserted into the contralateral forearm vein for the infusion of L-3-[methyl-^2 H3 ]-histidine (MSD Isotopes, Montreal, Canada). Finally, another catheter was threaded retrograde into the brachial vein of the dominant arm and used for sampling of the forearm tissue.
Each study was four days in duration. Starting at t=0 (8.00 hours), subjects were administered a bolus infusion of L-3-[methyl^2 H3 ]-histidine (D3 -3-methylhistidine) at 0.13 μmol/kg into the forearm vein of the dominant arm. The infusate was passed through a Millex-GS sterilizing filter (0.22 μm; Millipore Products Divisions, Bedford, Mass.) before the infusion. Blood samples were obtained from the superficial hand vein and from the deep forearm vein at 0, 1, 2, 5, 10, 15, 30, 45, 90, 150, 210, 270, 330, and 720 min. postinjection. During this time, the subjects were required to stay at the Clinical Research Center, although they were allowed to ambulate freely within their rooms. Free access to food and drink was allowed after the 330-min sample. After 720 min, the catheters were removed and the patients were allowed to go home. For the following three days, the subjects returned to the CRC each morning before eating for further blood sampling by percutaneous venous puncture at 1,440, 2,880, and 4,320 min postinjection. Urine was collected over 24 hour periods the day before and for three days after tracer infusion.
Blood was collected in heparinized syringes, transferred to tubes containing Na2 EDTA (15 mg/tube), and centrifuged. The plasma obtained was immediately placed on ice. An aliquot of the plasma was processed for determination of 3-methylhistidine concentration as well as the L-3-[methyl-^2 H3 ]-histidine:3-methylhistidine isotope enrichment. The remainder of the plasma was frozen at -70° C. The urine obtained was processed for the determination of creatinine both as a measure of the completeness of the collection (Pencharz, P. B. et al., "The effect of an energy-restricted diet on the protein metabolism of obese adolescents: nitrogen-balance and whole-body nitrogen turnover," Clin. Sci. (1980) 59:13-18), and for the estimation of lean body mass (Blackburn, G. L. et al., "Nutritional and metabolic assessment of hospitalized patients," J. Parenter. Enteral. Nutr. (1977) 1:11-22). […]

[3] = in vivo; remark: listed apart in the source
[4] = Safety and excretion of administered D3-3-methylhistidine; settings: small quantities administered
[5] = adult human; cited from earlier work
[6] = rat; cited from earlier work

What does the source list for `[2H]C([2H])([2H])n1cnc(C[C@H](N)C(=O)O)c1` [D3-3-methylhistidine, 3-[^2 H3-methyl]-methylhistidine]?
Exponential decay curve of tracer [1]: rapid decay over the first 2-3 hours, followed by a slower decay through 12 hours, and a steady state decay over the remainder of the study; Decay of D3-3-methylhistidine:3-methylhistidine ratio in plasma [2]: rapid decrease in the D3- 3-methylhistidine:3-methylhistidine ratio during the first 5 hours followed by a slow linear (semilog plot) decay over the three days of blood sampling; Urinary excretion [3]: quantitatively excreted in urine; Toxicity [4]: non-toxic

What does the source list for N-acetyl-3-methylhistidine?
Share of daily 3-methylhistidine excreted [5]: less than 5%; Form excreted in urine [6]: major form excreted in the rat
